Literature values as cited in patent publication US7456141B2, “Photo resist stripper composition” (Echem Solutions Corp., priority 2004, dated 2008).
Read-outs that look alike come from different tables or passages of the source.

Legend:
[1] = Table 3, route and species not given; in mg/kg
[2] = test system: Rat
[3] = test system: Rat; remark: listed apart in the source
[4] = for TWA: Time Weighted Average, eight hours a day and 40 hours a week; for STEL: Short Time Exposure Limit, 15 minutes
[5] = Table 3
[6] = for Flash Point / Vaporizing Speed / Ignition Point: Table 2; for Steam Pressure: at 20 ° C. (mmHg/° C. [sic])
[7] = test system: Rat; remark: listed apart in the source
[8] = test system: Mouse
[9] = test system: Rabbit

Row | SMILES | LD50 [1] | LD50/Hypodermic/Rat ([2]; hypodermic) | LC50/Inhale/Rat ([3]; 7 hrs.) | TWA [4] [ppm] | Flash Point [5] [°C] | Vaporizing Point [5] [°C] | Viscosity [5] [cst] | Flash Point [6] [°C] | Vaporizing Speed [6] | Steam Pressure [6] | LD50/Oral/Rat [7] | LC50/Inhale/Rat ([3]; 4 hrs.) | STEL [4] [ppm] | Ignition Point [6] [°C] | LC50/Inhale/Rat ([3]; exposure time not given) | LC50/Inhale/Mouse [8] | LD50/Hypodermic/Rabbit [9] | LD50/Hypodermic/Rat ([2]; in vivo) | LC50/Inhale/Rat ([3]; 6 hrs.)
1 | COCC(C)O (centres unmarked) [PGME, propylene glycol mono-methyl ether] | 6600 | LD50/Hypodermic/Rat: 13000 mg/kg | LC50/Inhale/Rat: 15000 ppm (7 hrs.) | 100 | 32 | 11.8 | 1.8 | 32 | 0.66 | 6.7/20 mmHg | LD50/Oral/Rat: 6600 mg/kg |  |  |  |  |  |  |  | 
2 | CCCCOC(C)=O [nBAc, n-Butyl Acetate] | 13100 |  |  | 150 | 22 | 15 | 0.7 | 22 | 0.98 | 7.8/20 mmHg |  | LC50/Inhale/Rat: 2000 ppm (4 hrs.) | 200 | 425 |  |  |  |  | 
3 | CC(=O)OCCC(C)C [IAAc, Isoamyl acetate] | 16600 |  |  |  | 25 | 4 |  |  |  |  |  |  |  |  |  |  |  |  | 
4 | CC(=O)CC(C)C [MIBK, Methyl isobutyl ketone] |  |  |  | 50 |  |  |  | 18 | 1.57 | 16/20 mmHg |  |  | 75 | 449 | LC50/Inhale/Rat: 4000 ppm | LC50/Inhale/Mouse: 23300 mg/m^3 | LD50/Hypodermic/Rabbit: 20 mg/kg |  | 
5 | COCC(C)OC(C)=O (centres unmarked) [PGMEA, Propylene glycol mono-methyl ether acetate] | 8532 |  |  | 100 | 47 | 3.8 | 1.1 | 42 | 0.34 | 3.8/20 mmHg | LD50/Oral/Rat: 8532 mg/kg |  |  | 354 |  |  |  | LD50/Hypodermic/Rat: 5000 mg/kg | LC50/Inhale/Rat: 4345 ppm (6 hrs.)
6 | O=C1CCCCC1 [ANONE, cyclohexanone] | 1535 |  |  |  | 44 | 4 | 2.2 |  |  |  |  |  |  |  |  |  |  |  | 
